US20130065897A1, “COMPOUNDS, PREPARATION AND USES THEREOF” (PETER MACCALLUM CANCER INSTITUTE, priority 2009, published 2013)

How the values were obtained:
KHYG-1 NK cells = assay: Toxicity to KHYG-1 NK cells (trypan blue viability); assay type: cell-based; settings: viable cells as percentage of total (% viability), 18 to 24 hours
[1] = system: KHYG-1 NK cell-mediated lysis of K562 cells; assay: Inhibition of KHYG-1 NK cell-mediated lysis of K562 cells (51Cr release); assay type: cell-based; settings: K562 target cells, Effector:Target 2:1, 4 hours 37° C.
Procedure, shortened: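 KHYG-1 NK effector cells in RPMI+0.1% BSA were preincubated with compounds up to 20 μM for 20 minutes at RT. ⁵¹Cr-labelled K562 targets were then added (E:T 2:1) for 4 hours at 37 °C, and ⁵¹Cr release gamma-counted as percent specific cytotoxicity, mean of triplicates ± SEM.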

recombinant perforin = recombinant perforin (UniProt P10820); assay type: cell-based; settings: read-out: Jurkat IC50; recombinant perforin pre-incubated 30 min with compound; 51Cr-labelled Jurkat cells, 0.1% BSA, 37° C. 4 hours
Procedure, shortened: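 Jurkat T lymphoma target cells labelled 1 h with 100 μCi ^51Cr, washed, resuspended at 1×10^5 cells/mL in RPMI with 0.1% BSA; lysis read as ^51Cr release into supernatant by gamma counting. Triplicate points; IC50 from the concentration range.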

recombinant perforin, sequence (P10820 whole entry): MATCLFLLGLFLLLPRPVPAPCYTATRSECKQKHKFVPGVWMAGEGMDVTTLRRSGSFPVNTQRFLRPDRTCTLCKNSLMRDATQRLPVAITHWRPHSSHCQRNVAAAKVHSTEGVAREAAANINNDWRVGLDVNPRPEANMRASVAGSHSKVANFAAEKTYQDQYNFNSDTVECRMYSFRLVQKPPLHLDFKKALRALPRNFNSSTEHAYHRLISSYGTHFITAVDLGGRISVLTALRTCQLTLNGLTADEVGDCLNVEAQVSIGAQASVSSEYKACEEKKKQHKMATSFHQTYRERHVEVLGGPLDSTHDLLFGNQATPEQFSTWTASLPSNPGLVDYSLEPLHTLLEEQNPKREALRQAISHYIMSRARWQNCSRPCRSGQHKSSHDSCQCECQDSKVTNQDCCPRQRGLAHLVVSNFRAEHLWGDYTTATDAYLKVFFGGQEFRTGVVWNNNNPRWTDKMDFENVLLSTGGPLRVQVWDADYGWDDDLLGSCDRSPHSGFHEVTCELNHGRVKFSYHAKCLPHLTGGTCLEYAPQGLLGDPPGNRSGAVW

| Structure (SMILES) | percent viable KHYG-1 cells (trypan blue) at 20 μM (KHYG-1 NK cells) [%] | inhibition at 20 µM [1] [%] | melting point | IC50 (recombinant perforin) [nM] |
| --- | --- | --- | --- | --- |
| O=C1NC(=S)N/C1=C/c1cc2cc(-c3ccc4c(c3)COC4=O)ccc2[nH]1 [Cmpd 12, (E,Z)-5-((5-(1-Oxo-1,3-dihydroisobenzofuran-5-yl)-1H-indol-2-yl)methylene)-2-thioxoimidazolidin-4-one] | 94 | 74 | > 300 °C | 720 |
| O=C1NC(=S)N/C1=C\c1ccc2ccc(-c3ccc4c(c3)COC4=O)cc2n1 [Cmpd 13] | 70 | 52 | > 310 °C | 1720 |
| COc1ccc(-c2ccc(/C=C3/NC(=S)NC3=O)s2)cc1 [Cmpd 22, (E,Z)-5-((5-(4-Methoxyphenyl)thiophen-2-yl)methylene)-2-thioxoimidazolidin-4-one] | 100 | 78 | 288 to 293 °C | 8930 |
| O=C1NC(=S)N/C1=C/c1ccc(-c2ccc(C(=O)NCCN3CCOCC3)cc2)s1 [Cmpd 45, (E,Z)-N-(2-Morpholinoethyl)-4-(5-((5-oxo-2-thioxoimidazolidin-4-ylidene)methyl)thiophen-2-yl)benzamide] | 88 | 78 | 248 to 252 °C | > 20000 |
| O=C1NC(=S)N/C1=C\c1cnc(-c2ccc3c(c2)COC3=O)s1 [Cmpd 55, (E,Z)-5-((2-(1-Oxo-1,3-dihydroisobenzofuran-5-yl)thiazol-5-yl)methylene)-2-thioxoimidazolidin-4-one] | 95 | 53 | > 300 °C | 1720 |
| CN(C)CCCN1Cc2cc(-c3ccc(/C=C4/NC(=S)NC4=O)s3)ccc2C1=O [Cmpd 74, (E)-2-(3-(Dimethylamino)propyl)-5-(5-((5-oxo-2-thioxoimidazolidin-4-ylidene)methyl)thiophen-2-yl)isoindolin-1-one] | 82 | 53 | 212 °C (dec.) | > 20000 |
| O=C1NC(=S)N/C1=C/c1cc2ccc(-c3ccc4c(c3)COC4=O)cc2s1 [Cmpd 80, (E,Z)-5-((6-(1-Oxo-1,3-dihydroisobenzofuran-5-yl)benzo[b]thiophen-2-yl)methylene)-2-thioxoimidazolidin-4-one] | 75 | 55 | > 310 °C | 360 |
